According to patent US8802053B2 (Brookhaven Science Associates, LLC, priority 2009, dated 2014):

Legend:
brain aromatase = test: PET studies in baboons (brain imaging); format: in vivo, baboon
Description: PET Studies in Baboons: All animal studies were reviewed and approved by the Brookhaven Institutional Animal Care and Use Committee. […] Baboons were anesthetized with ketamine (10 mg/kg) and then intubated and ventilated with a mixture of isoflurane (Forane, 1-4%) and nitrous oxide (1500 mL/min) and oxygen (800 mL/min). Animals were transported to and from the PET facility in a temperature controlled transfer cage and a member of the staff attended them while they recovered from anesthesia. Catheters were inserted in a popliteal artery and radial arm vein for arterial sampling a radiotracer injection respectively. Dynamic PET imaging was carried out on a Siemen's HR+ high resolution, whole body PET scanner (4.5×4.5×4.8 mm at center of field of view) in 3D acquisition mode, 63 planes. A transmission scan was obtained with a ^68Ge rotating rod source before the emission scan to correct for attenuation before each radiotracer injection. […] Dynamic scanning was carried out for 90 minutes with the following time frames (1×10 sec; 12×5 sec; 1×20 sec; 1×30 sec; 8×60 sec; 4×300 sec; 8×450 sec). […] During the PET scan, baboons were monitored for heart rate, respiration rate, PO2 and temperature. Animals were allowed 4 weeks between studies to recover from anesthesia and blood sampling.
Image Analysis: Time frames were summed over the 90 minute experimental period. Regions of interest were placed over the amygdala, the preoptic area, frontal cortex, cerebellum and thalamus on the summed image and then projected onto the dynamic images to obtain time activity curves. Regions occurring bilaterally were averaged. Carbon-11 concentration in each region of interest was divided by the injected dose to obtain the % dose/cc. The summed PET images from one baboon was co-registered with a 3D MR image of the same animal using PMOD (PMOD Technologies, Ltd.).

[1] = Plasma analysis for fraction of 11C-isomers (unchanged parent tracer by HPLC); format: in vivo; conditions: baboon plasma
Description: Plasma analysis for fraction of ^11C-isomers: Plasma samples at 1, 5, 10, 30 and 60 min were analyzed by HPLC to determine the percent of residual parent tracer. Plasma samples from selected time points were added to 300 μL acetonitrile containing an appropriate amount of standard, then subjected to cell disruption using a Polytron (Brinkmann Instruments), centrifuged for 4 minutes and decanted into 300 μL water. HPLC conditions were 60:40 0.1 M ammonium formate:acetonitrile, Waters μBondapak column (3.9×300 mm), flow 1.3 mL/min, UV detection at 254 nm. Supernatants were injected onto the column, reserving a measured amount to determine recovery of injected activity from the column. […] Five fractions were collected from each injection, 3 before the parent peak, the parent peak, and finally the tail of the parent peak. The percent unchanged tracer was determined by dividing the sum of the last 2 peaks by the sum of all HPLC fractions.

brain aromatase enzymes = conditions: Kil et al. (2008); cited from earlier work

## N#Cc1ccc(C(c2ccc(C#N)cc2)n2cncn2)cc1 [letrozole, reference compound]
Brain aromatase; blocking dose 0.1 mg/kg, 5 min prior, baboon
  effect of pretreatment on [N-methyl-11C]vorozole accumulation in brain: reduced [N-methyl-^11C]vorozole accumulation in all brain regions examined

## [11CH3]n1nc2ccc(C(c3ccc(Cl)cc3)n3cncn3)cc2n1 (stereo not drawn) [N-2 isomer]
[1]
  appearance of labeled metabolites in plasma: very rapid appearance of labeled metabolites
  disappearance of parent labeled compound from plasma: rapid rate of disappearance of the parent labeled compound from plasma
Brain aromatase; baboon brain
  distribution to aromatase-rich brain regions: no specific distribution to aromatase-rich brain regions
Brain aromatase; baboon brain, images summed 15-90 min after injection, FIG. 3
  PET image uptake in amygdala and preoptic area: no specific uptake in amygdala and preoptic area

## N#Cc1ccc(C(c2ccc(C#N)cc2)n2cncn2)cc1 [[^11C]letrozole]
Brain aromatase enzymes
  blocking of uptake by pretreatment with unlabeled letrozole: failed to block uptake
  brain uptake and clearance: rapidly taken up in the brain and was then rapidly cleared
